From US6781015B2, “Aminobenzophenones and photopolymerizable compositions including the same” (Albemarle Corporation, priority 1997, dated 2004)
Several values for one entry are separate records, joined by “and”; a condition that tells them apart may be missing. Identical values can stand only once.

System: Salmonella typhimurium tester strain TA98
Assay: Salmonella/Mammalian-Microsome Reverse Mutation Screening Assay (Ames Test)
Format: cell-based
Design: key to Background lawn: 1 = normal; 2 = slightly reduced; 3 = moderately reduced; 4 = extremely reduced; 5 = absent; 6 = obscured by precipitate; sp = slight precipitate; mp = moderate precipitate (requires hand count); hp = heavy precipitate (requires hand count)
Conditions: for Ames Test outcome (mutagenicity): tester strain TA98 in the presence of S9 mix
Experimental: Mutagenicity can be measured by a variety of assays. The most commonly used method is the Salmonella/Mammalian-Microsome Reverse Mutation Screening Assay (Ames Test), which commonly uses four or five strains of Salmonella bacteria to detect different types of mutations.
TMMK, TEMK and MEAB were evaluated for the ability to induce reverse mutations at the histidine locus in the genome of a specific Salmonella typhimurium tester strain in the presence of an exogenous metabolic activation system of mammalian microsomal enzymes derived from Aroclor™-induced rat liver (S9). The tester strain used in the mutagenicity assay was Salmonella typhimurium tester strain TA98 with added activation. The assay was conducted using eight doses of the test article, along with the appropriate vehicle and positive controls in the presence of S9 mix (S9 homogenate was purchased from Molecular Toxicology, Inc., Annapolis, Md. 21401, Batch 0646, 43.4 mg of protein per ml). Positive controls were also plated in the absence of S9 mix. All doses of test article, vehicle, and positive controls were plated in triplicate.
The test article TMMK was stored at room temperature. Acetone (CAS# 67-64-1, Fisher Scientific Co., Lot 961140) was used as the vehicle. At 20 mg per ml, which was the most concentrated stock solution which could be prepared, the test article formed a clear, light yellow solution. The test article remained a solution in all succeeding dilutions prepared for the mutagenicity assay. The maximum aliquot of acetone which can be used in the test system is 200 μl. Thus, the maximum concentration which could be tested was 4,000 μg per plate. The test article and vehicle controls were plated using a 200 μl plating aliquot. Positive control articles were plated using 50 μl plating aliquot.
(§1) The test article TEMK was stored at room temperature. Acetone (CAS# 67-64-1, Fisher Scientific Co., Lot 961140) was used as the vehicle. At 100 mg per ml, which was the most concentrated stock solution prepared, the test article formed a clear, yellow solution. The test article remained a solution in all succeeding dilutions prepared for the mutagenicity assay. The test article, vehicle controls and positive control articles were plated using a 50 μl plating aliquot.
as §1, with “MEAB” for “TEMK”, “(CAS#67-64-1,” for “(CAS# 67-64-1,”, “25” for “100”, “clear, light” for “clear,”, “article and” for “article,”, “were plated using a 200 μl plating aliquot. Positive” for “and positive”
The data are presented as individual plate counts along with a mean and standard deviation.

[1] = TA98, rat liver S9, 3.33 μg/plate
[2] = TA98, rat liver S9, 3.33 μg/plate, plates 1-3
[3] = TA98, rat liver S9, 10.0 μg/plate
[4] = TA98, rat liver S9, 10.0 μg/plate, plates 1-3
[5] = TA98, rat liver S9, 33.3 μg/plate
[6] = TA98, rat liver S9, 33.3 μg/plate, plates 1-3
[7] = TA98, rat liver S9, 100 μg/plate
[8] = TA98, rat liver S9, 100 μg/plate, plates 1-3
[9] = TA98, rat liver S9, 333 μg/plate
[10] = TA98, rat liver S9, 333 μg/plate, plates 1-3
[11] = TA98, rat liver S9, 1000 μg/plate
[12] = TA98, rat liver S9, 1000 μg/plate, plates 1-3
[13] = TA98, rat liver S9, 3330 μg/plate
[14] = TA98, rat liver S9, 3330 μg/plate, plates 1-3
[15] = TA98, rat liver S9, 5000 μg/plate
[16] = TA98, rat liver S9, 5000 μg/plate, plates 1-3
[17] = Table 1, TA98, rat liver S9, 3.33 μg/plate
[18] = Table 1, TA98, rat liver S9, 10.0 μg/plate
[19] = Table 1, TA98, rat liver S9, 33.3 μg/plate
[20] = Table 1, TA98, rat liver S9, 100 μg/plate
[21] = Table 1, TA98, rat liver S9, 333 μg/plate
[22] = Table 1, TA98, rat liver S9, 1000 μg/plate
[23] = Table 1, TA98, rat liver S9, 3330 μg/plate
[24] = Table 1, TA98, rat liver S9, 5000 μg/plate
[25] = Table 2 summary, TA98, rat liver S9, 3.33 μg/plate
[26] = Table 2 summary, TA98, rat liver S9, 10.0 μg/plate
[27] = Table 2 summary, TA98, rat liver S9, 33.3 μg/plate
[28] = Table 2 summary, TA98, rat liver S9, 100 μg/plate
[29] = Table 2 summary, TA98, rat liver S9, 333 μg/plate
[30] = Table 2 summary, TA98, rat liver S9, 1000 μg/plate
[31] = Table 2 summary, TA98, rat liver S9, 3330 μg/plate
[32] = Table 2 summary, TA98, rat liver S9, 5000 μg/plate

Row | Structure (SMILES) | Mean revertants per plate [1] | Individual plate counts, revertants per plate [2] | Mean revertants per plate [3] | Individual plate counts, revertants per plate [4] | Mean revertants per plate [5] | Individual plate counts, revertants per plate [6] | Mean revertants per plate [7] | Individual plate counts, revertants per plate [8] | Mean revertants per plate [9] | Individual plate counts, revertants per plate [10] | Mean revertants per plate [11] | Individual plate counts, revertants per plate [12] | Mean revertants per plate [13] | Individual plate counts, revertants per plate [14] | Mean revertants per plate [15] | Individual plate counts, revertants per plate [16] | Background lawn [17] | Background lawn [18] | Background lawn [19] | Background lawn [20] | further results
1 | CCN(C)c1ccc(C(=O)c2ccc(N(C)CC)cc2)cc1 [MEAB, 4,4′-bis(methylethylamino)benzophenone] | 19 revertants per plate | 21 revertants per plate and 22 revertants per plate and 13 revertants per plate | 21 revertants per plate | 28 revertants per plate and 11 revertants per plate and 25 revertants per plate | 24 revertants per plate | 25 revertants per plate and 24 revertants per plate (2×) | 19 revertants per plate | 18 revertants per plate and 20 revertants per plate (2×) | 24 revertants per plate | 31 revertants per plate and 19 revertants per plate and 21 revertants per plate | 27 revertants per plate | 23 revertants per plate and 21 revertants per plate and 36 revertants per plate | 19 revertants per plate | 14 revertants per plate and 17 revertants per plate and 27 revertants per plate | 24 revertants per plate | 23 revertants per plate (2×) and 27 revertants per plate | 1 | 1 | 1 | 1 sp | Background lawn [21]: 1 mp; Background lawn [22]: 1 mp; Background lawn [23]: 1 hp; Background lawn [24]: 1 hp; Background lawn [25]: 1; Background lawn [26]: 1; Background lawn [27]: 1; Background lawn [28]: 1 sp; Background lawn [29]: 1 mp; Background lawn [30]: 1 mp; Background lawn [31]: 1 hp; Background lawn [32]: 1 hp; Ames Test outcome (mutagenicity): did not cause a positive increase
2 | CCN(CC)c1ccc(C(=O)c2ccc(N(CC)CC)cc2)cc1 [TEMK, 4,4′-bis(diethylamino)benzophenone] | 25 revertants per plate | 22 revertants per plate (2×) and 30 revertants per plate | 25 revertants per plate | 30 revertants per plate and 24 revertants per plate and 20 revertants per plate | 18 revertants per plate | 13 revertants per plate and 23 revertants per plate and 19 revertants per plate | 26 revertants per plate | 28 revertants per plate and 26 revertants per plate and 24 revertants per plate | 19 revertants per plate | 20 revertants per plate and 17 revertants per plate and 19 revertants per plate | 24 revertants per plate | 32 revertants per plate and 23 revertants per plate and 17 revertants per plate | 22 revertants per plate | 27 revertants per plate and 15 revertants per plate and 25 revertants per plate | 22 revertants per plate | 27 revertants per plate and 19 revertants per plate (2×) | 1 | 1 | 1 | 1 | Background lawn [21]: 1 sp; Background lawn [22]: 1 mp; Background lawn [23]: 1 mp; Background lawn [24]: 1 mp; Background lawn [25]: 1; Background lawn [26]: 1; Background lawn [27]: 1; Background lawn [28]: 1; Background lawn [29]: 1 sp; Background lawn [30]: 1 mp; Background lawn [31]: 1 mp; Background lawn [32]: 1 mp; Ames Test outcome (mutagenicity): did not cause a positive increase
3 | Nc1ccc2cc3ccccc3cc2c1 [2-aminoanthracene] | – | – | – | – | – | – | – | – | – | – | – | – | – | – | – | – | – | – | – | – | Background lawn (Table 1, positive control, TA98, rat liver S9, 2.5 μg/plate, in the TMMK, TEMK and MEAB runs): 1; Background lawn (Table 2 summary, positive control, TA98, rat liver S9, 2 5 μg/plate, in the TMMK, TEMK and MEAB runs): 1; Individual plate counts, revertants per plate (positive control, TA98, rat liver S9, 2.5 μg/plate, plates 1-3, in the TMMK, TEMK and MEAB runs): 1053 revertants per plate and 1225 revertants per plate and 1226 revertants per plate and 920 revertants per plate and 932 revertants per plate and 1264 revertants per plate and 1032 revertants per plate and 1133 revertants per plate and 1196 revertants per plate; Mean revertants per plate (positive control, TA98, rat liver S9, 2 5 μg/plate, in the TMMK, TEMK and MEAB runs): 968 revertants per plate and 1143 revertants per plate and 1216 revertants per plate
